Experiments:
Assay type in all cases: cell-based
[1] = target: T1, endogenous MYC:MAX interaction (Homo sapiens, UniProt P01106); experiment: in situ proximity ligation assay (isPLA), MYC:MAX; settings: 5 μM, 24 hours, MCF-7 cells
T1 construct: endogenous in cells; host or cells: MCF7
Protocol: FIG. 1: MYCMI-7 (Compound Example 1) inhibits the MYC:MAX interaction in cells, bind MYC in vitro, and blocks MYC function. A) Molecular structure of MYCMI-7. B-E) split Gaussia luciferase (GLuc) assay. MYC or MYCN and MAX Gluc constructs were co-transfected into HeLa cells together with a firefly luciferase vector. 24 hours post transfection cells were treated with compounds, and after another 17-24 hours cells were harvested and both GLuc and firefly luciferase activities were measured. The mean of three different experiments is shown. […] G) Quantification of isPLA dots. […] J) MYC target gene ODC1 expression after treatment with 5 μM MYCMI-7, quantified by qPCR. […] L) Recombinant MYC bHLHZip protein domain immobilized onto a CM5 chip was subjected to various concentrations of MYCMI-7 and the complex of MYCbHLHZip-MYCMI-7 was measured as response units by SPR. […]
Briefly, cells were grown on collagen-coated chamber slides (Falcon), treated with compounds and then washed twice with PBS and fixed in ice cold methanol for 5-15 min at room temperature. […] Images were taken using an Axiovert 200M inverted microscope (Zeiss) and fluorescent dots were quantified using semi-automated analysis in ImageJ (http://imagej.net) and averaged to number of dots per cell. […]

[2] = test system: MYC target genes CR2, RGS16, CAMKV and nucleolin; experiment: MYC transactivation of target genes in U2OS-MYCER cells, RT-qPCR; settings: 5 μM, 24 hours
Protocol: F) Inhibition of MYC transactivation of target genes CR2, RSG16, CAKMV and nucleolin as determined by RT-qPCR analysis, based on three biological experiments with three technical repeats each. U2OS-MYCER cells were treated with (MYC ON) or without (MYC OFF) 100 nM 4-hydroxy-tamoxifen (4-OHT) for 4 hours, after which DMSO or MYCMI-7 (5 μM) were added for 24 hours before total RNA was extraction. Fold changes in mRNA expression are presented relative to DMSO in MYC OFF cells after normalization to GAPDH, used as reference gene.
MYC:MAX interaction = MYC:MAX interaction (Homo sapiens, UniProt P01106); experiment: split Gaussia luciferase (GLuc) assay, MYC:MAX; parameters: replacing the existing Zip-gene (GCN4) with full length MYC, MYCN or MAX cDNA; expressed in transfected cells; host or cells: HeLa; settings: 5 μM
Protocol: A) Molecular structure of MYCMI-7. B-E) split Gaussia luciferase (GLuc) assay. MYC or MYCN and MAX Gluc constructs were co-transfected into HeLa cells together with a firefly luciferase vector. 24 hours post transfection cells were treated with compounds, and after another 17-24 hours cells were harvested and both GLuc and firefly luciferase activities were measured. The mean of three different experiments is shown. Treatment with: B) 5 μM of MYCMI-7, 64 μM 10058-F4 or 5 μM JQ1, respectively, C) 6.5 μM MYCMI-7 on cells expressing MYC:MAX GLuc vs. GCN4:GCN4 GLuc, D) 5 μM MYCMI-7 and 5 μM ellipticine. E) 5 μM MYCMI-7 for various time points. F) in situ proximity ligation assay (isPLA). […] MYC:GAL4 was used as negative control in the isPLA assay. G) Quantification of isPLA dots. (H) Co-immunoprecipitation (co-IP) of endogenous MYC and MAX proteins from MCF7 cells after treatment with 5 μM MYCMI-7 at various times. IP=immunoprecipitation; W=western blot. I) Chromatin immunoprecipitation (ChIP) of MYC at the ODC1 target gene promoter after treatment of cells with 5 μM MYCMI-7 for 6 hours. J) MYC target gene ODC1 expression after treatment with 5 μM MYCMI-7, quantified by qPCR. K) ChIP of MYC at the ODC promoter in MCF7 cells after 5 μM MYCMI-7 treatment for indicated time points. L) Recombinant MYC bHLHZip protein domain immobilized onto a CM5 chip was subjected to various concentrations of MYCMI-7 and the complex of MYCbHLHZip-MYCMI-7 was measured as response units by SPR. The sensogram was produced by subtracting the blank response.
0.2-0.4 μg of each GLuc-construct together with 0.05 μg pCMV-LUC (firefly luciferase) were used per transfection in 12 well plates. 24 hours later cells were treated with compound or DMSO. After another 17 hours, the cells were harvested and lyzed in passive lysis buffer (Promega) supplemented with complete protease inhibitor (Roche). After 60 min incubation at room temperature 20 μM D-luciferin was added (substrate of Firefly luciferase) and luminescence was measured in a Lumat LB9501 (Berthold) or OmegaFluostar (BMG Labtech) luminometer. Directly after, Gaussia luciferase substrate Coelenterazine (Promega) was added to a final concentration of 20 μM in a mixture with “Stop n' Glow” (Promega) and the luciferase activity was measured. The ratio between Gaussia and Firefly luciferase values were calculated and normalized to DMSO-treated control cells.

Chain of MYC:MAX interaction (P01106 16-454): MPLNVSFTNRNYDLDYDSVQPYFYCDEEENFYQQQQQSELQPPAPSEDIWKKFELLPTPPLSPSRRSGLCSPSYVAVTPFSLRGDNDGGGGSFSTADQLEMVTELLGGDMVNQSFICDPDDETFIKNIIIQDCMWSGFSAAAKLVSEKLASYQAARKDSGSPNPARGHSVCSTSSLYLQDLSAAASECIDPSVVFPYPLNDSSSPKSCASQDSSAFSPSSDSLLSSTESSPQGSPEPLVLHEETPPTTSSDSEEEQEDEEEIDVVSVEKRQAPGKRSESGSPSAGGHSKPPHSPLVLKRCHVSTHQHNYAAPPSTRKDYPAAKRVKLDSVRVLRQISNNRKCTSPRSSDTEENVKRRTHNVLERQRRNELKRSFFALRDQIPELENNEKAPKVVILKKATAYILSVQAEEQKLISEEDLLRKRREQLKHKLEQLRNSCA
T1 sequence (P01106 16-454): as above

For `CCN(CC)CC[n+]1ccc2c(C)c3[nH]c4ccccc4c3c(C)c2c1` [MYCMI-7, 2-(5,11-Dimethyl-6H-25-pyrido[4,3-b]carbazol-2-yl)-N,N-diethylethanamine bromide], the “inhibition of MYC:MAX interaction (isPLA)” value [1] was “strongly inhibited”, the “4-OHT-induced expression of CR2, RGS16, CAMKV and nucleolin” value [2] was “significantly reduced” and the “time of treatment within which MYC:MAX interaction was inhibited” value (MYC:MAX interaction) was at most 4 h. For the same compound, the “inhibition of MYC:MAX GLuc interaction” value (MYC:MAX interaction; HeLa cells) was “inhibited”.

— patent publication US20250122193A1, “NOVEL PYRIDOCARBAZOLIUM COMPOUNDS AND MEDICAL USES THEREOF” (MyCural Therapeutics, priority 2021, published 2025)
